Reference: US8466162B2, “5-alkynyl-pyridines” (Boehringer Ingelheim International GmbH, priority 2011, dated 2013)

What was measured:
[1] = biological target: T1, PI3Kalpha (Homo sapiens, UniProt P42336); assay: Inhibition of PI3Kalpha-induced PIP-2 phosphorylation (filter-binding assay, 33P-ATP); format: biochemical; details: PI3 Kinase alpha (p85alpha/His-p110alpha), 1 μM ATP; read-out: IC50 PI3Kα
T1 construct: His (N); made in house; host or cells: SF9 insect cells (baculovirus co-infection)
T1 sequence (P27986 whole entry): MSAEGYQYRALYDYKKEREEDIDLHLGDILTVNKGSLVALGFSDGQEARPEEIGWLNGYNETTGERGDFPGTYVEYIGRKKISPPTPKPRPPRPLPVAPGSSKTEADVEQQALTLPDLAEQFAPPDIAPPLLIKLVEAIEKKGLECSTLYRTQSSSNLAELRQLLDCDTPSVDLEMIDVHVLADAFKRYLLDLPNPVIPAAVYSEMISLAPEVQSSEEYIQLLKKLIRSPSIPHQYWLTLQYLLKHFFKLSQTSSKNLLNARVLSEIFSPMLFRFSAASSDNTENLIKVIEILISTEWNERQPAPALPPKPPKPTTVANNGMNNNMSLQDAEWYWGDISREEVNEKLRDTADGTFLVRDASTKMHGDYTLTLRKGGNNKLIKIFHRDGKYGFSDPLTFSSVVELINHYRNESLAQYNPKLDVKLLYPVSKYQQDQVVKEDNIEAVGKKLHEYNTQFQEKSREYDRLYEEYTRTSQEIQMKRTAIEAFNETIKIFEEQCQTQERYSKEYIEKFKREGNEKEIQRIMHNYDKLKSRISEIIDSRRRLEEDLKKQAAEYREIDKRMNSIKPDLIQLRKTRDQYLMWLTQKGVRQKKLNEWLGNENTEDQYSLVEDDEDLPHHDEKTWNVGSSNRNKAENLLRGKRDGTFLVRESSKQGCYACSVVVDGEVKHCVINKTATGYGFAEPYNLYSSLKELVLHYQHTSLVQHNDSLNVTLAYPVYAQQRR
T1 sequence (P42336 whole entry): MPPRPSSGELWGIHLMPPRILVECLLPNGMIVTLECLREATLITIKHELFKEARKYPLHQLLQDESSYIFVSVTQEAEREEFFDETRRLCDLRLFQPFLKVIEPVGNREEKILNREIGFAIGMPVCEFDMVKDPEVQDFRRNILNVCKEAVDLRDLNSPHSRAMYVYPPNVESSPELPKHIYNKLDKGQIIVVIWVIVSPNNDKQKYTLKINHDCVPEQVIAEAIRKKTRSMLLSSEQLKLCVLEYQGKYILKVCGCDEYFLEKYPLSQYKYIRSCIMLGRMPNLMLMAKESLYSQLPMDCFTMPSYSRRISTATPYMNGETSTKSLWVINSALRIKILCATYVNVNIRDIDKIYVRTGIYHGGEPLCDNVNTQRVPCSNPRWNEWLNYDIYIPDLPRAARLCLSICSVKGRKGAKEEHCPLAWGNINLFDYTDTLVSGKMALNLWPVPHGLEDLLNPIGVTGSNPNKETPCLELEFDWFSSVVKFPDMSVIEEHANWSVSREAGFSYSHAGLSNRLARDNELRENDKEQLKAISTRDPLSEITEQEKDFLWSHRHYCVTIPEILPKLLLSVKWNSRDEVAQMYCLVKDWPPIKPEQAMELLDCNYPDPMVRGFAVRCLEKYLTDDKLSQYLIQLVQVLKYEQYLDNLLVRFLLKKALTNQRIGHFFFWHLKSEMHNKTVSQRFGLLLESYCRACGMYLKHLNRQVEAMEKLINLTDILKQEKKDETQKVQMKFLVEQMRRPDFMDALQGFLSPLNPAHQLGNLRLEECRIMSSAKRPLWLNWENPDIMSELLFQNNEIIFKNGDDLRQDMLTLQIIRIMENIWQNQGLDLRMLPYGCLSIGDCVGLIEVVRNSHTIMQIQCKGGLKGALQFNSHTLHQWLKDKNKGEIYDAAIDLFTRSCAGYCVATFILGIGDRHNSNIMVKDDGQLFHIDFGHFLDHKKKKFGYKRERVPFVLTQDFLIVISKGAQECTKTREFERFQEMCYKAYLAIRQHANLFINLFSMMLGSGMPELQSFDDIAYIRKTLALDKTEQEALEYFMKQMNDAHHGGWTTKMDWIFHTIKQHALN

[2] = test system: H460 cells; assay: alamarBlue H460 cell assay (antiproliferative/cytotoxicity); format: cell-based; details: NCI-H460; H460 human lung carcinoma cells
Outline: (§1)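 Cells treated 5–6 days at 37 °C with compound, 10 μM top final concentration, 1:3 steps over 10 dilutions, in duplicate. alamarBlue then added for 8 h; fluorescence read at ex 530–560/em 590 nm, medium blank subtracted, EC50 fitted.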

[3] = test system: MB453 cells; assay: alamarBlue MB453 cell assay (antiproliferative/cytotoxicity); format: cell-based; details: Homo sapiens; MDA MB 453 breast cancer cell line
Text: (§2) The H460, MB453, U87, MCF7 and BT474 alamarBlue cell assays provide EC50 values indicative of the antiproliferative or cytotoxic effects of the compounds to respectively the H460 (human non small cell line cancer), MB-453 (breast cancer cell line), U87 (glioblastoma cell line), MCF7 (breast cancer cell line) and BT474 (breast cancer cell line). As known in the field, antiproliferative or cytotoxic effect against this cell lines would be expected to be indicative of activity in treating lung, breast and brain cancers. See R. Marone R et al. Biochim. Biophys. Acta. 2008 January; 1784(1):159-85. S. Yaguchi et al., J. Natl. Cancer Inst. 2006 Apr. 19; 98(8):545-56.
(§3) Method Type: Antiproliferative/Cytotoxicity
(§4) alamarBlue® is designed to provide a rapid and sensitive measure of cell proliferation and cytotoxicity in various human and animal cell lines. The assay is based on the reduction of alamarBlue in the reducing environment of living (metabolically active) cells. In the presence of added cytotoxic or antiproliferative compounds, the innate metabolic activity ceases.
(§5) AlamarBlue is soluble and stable in culture medium. Measurements are made fluorometrically by exciting at 530-560 nm and measuring emission at 590 nm. In reporting percent alamarBlue reduction by monitoring fluorescence, data are expressed as fluorescence emission intensity units as a function of time of incubation.
(§6) 3. Equipment • 96-well plates, flat bottom (Falcon, Cat. No.: 353072) • 96-well plates, U-shaped (Costar, Cat. No.: 3799) • CO2-Incubator • Microplate Reader, Spectramax Plus, Molecular Devices 4. Typical Procedure • Day 0: Seed 3000 BT-474 cells (IMDM/5% FCS, 1% NEAA, 1% Sodiumpyruvat) in 150 μl medium into a 96-well plate, flat bottom (include mediumblank). Incubate plates at 37° C. in a CO2 incubator overnight. • Day 1: Dilute compounds to a concentration 40 μM ->1:3 in medium, 10 dilution steps, in 96-well plates. • Add 50 μl per well of each dilution (total volume per well 200 μl; final conc. of cpds: 10 μM ->1:3). If required, test further dilutions. • All concentrations are tested in duplicates. • Controls: Cells w/o cpd. (+50 μl medium/DMSO). • Cells are incubated with compounds for 5-6 days. • Day 6 or 7: Add 25 μl of alamarBlue solution to each well and incubate for 8 hours at 37° C. Measure fluorescence by exciting at 530-560 nm and measuring emission at 590 nm 5. Evaluation • Subtract average value for medium blank from sample readings • Calculate EC50 using GraphPad Prism (Fifty)

[4] = test system: U87 cells; assay: alamarBlue U87 cell assay (antiproliferative/cytotoxicity); format: cell-based; details: U-87MG human glioblastoma cells
Text: as §2, §3, §4, §5, §6

[5] = test system: MCF7 cells; assay: alamarBlue MCF7 cell assay (antiproliferative/cytotoxicity); format: cell-based; details: MCF7 human breast cancer cell line
Outline: as §1

[6] = test system: BT474 cells; assay: alamarBlue BT474 cell assay (antiproliferative/cytotoxicity); format: cell-based; details: BT-474 human breast cancer cell line, 5-6 days incubation
Outline: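 3000 cells/well, overnight attachment, 37° C CO2; BT474 medium IMDM/5% FCS. Cpds 10 μM final, 1:3 x10, duplicates; 5-6 d exposure. alamarBlue 8 h, fluor. 530-560/590 nm; EC50 from blank-corrected data.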

Compound `CCOc1ccc(-c2ncnc(CC)c2C#Cc2cnc(C)c(NS(C)(=O)=O)c2)cc1OCC` [Example 23, N-{5-[4-(3,4-Diethoxy-phenyl)-6-ethyl-pyrimidin-5-ylethynyl]-2-methyl-pyridin-3-yl}-methanesulfonamide] has an IC50 [1] of 0.58 nM, an EC50 [2] of 109 nM and an EC50 [3] of 123 nM. For the same compound, the EC50 [4] was 470 nM, the EC50 [5] was 45 nM and the EC50 [6] was 119 nM.
For `CCc1ncnc(-c2ccc(C(=O)N3CCN(C)CC3)c(F)c2)c1C#Cc1cnc(C)c(NS(=O)(=O)c2ccc(F)cc2F)c1` [Example 27, N-(5-{4-Ethyl-6-[3-fluoro-4-(4-methyl-piperazine-1-carbonyl)-phenyl]-pyrimidin-5-ylethynyl}-2-methyl-pyridin-3-yl)-2,4-difluoro-benzenesulfonamide], the IC50 [1] was 0.5 nM, the EC50 [2] was 192 nM and the EC50 [3] was 33 nM. For the same compound, the EC50 [4] was 75 nM, the EC50 [5] was 11 nM and the EC50 [6] was 51 nM.
Work on `CCc1nc(N)nc(-c2ccc(C(=O)N3CCN(C)CC3)c(F)c2)c1C#Cc1cnc(C)c(NS(=O)(=O)c2ccc(F)cc2F)c1` [Example 32, N-(5-{2-Amino-4-ethyl-6-[3-fluoro-4-(4-methyl-piperazine-1-carbonyl)-phenyl]-pyrimidin-5-ylethynyl}-2-methyl-pyridin-3-yl)-2,4-difluoro-benzenesulfonamide] yielded an IC50 [1] of 0.28 nM, an EC50 [2] of 500 nM and an EC50 [3] of 49 nM. The EC50 [4] was 259 nM, the EC50 [5] was 23 nM and the EC50 [6] was 127 nM.
`CCc1nc(N)nc(-c2ccnc(C)c2)c1C#Cc1cnc(C)c(NS(=O)(=O)c2ccc(F)cc2F)c1` [Example 33, N-{5-[2-Amino-4-ethyl-6-(2-methyl-pyridin-4-yl)-pyrimidin-5-ylethynyl]-2-methyl-pyridin-3-yl}-2,4-difluoro-benzenesulfonamide] gave an IC50 [1] of 0.45 nM, an EC50 [2] of 70 nM and an EC50 [3] of 45 nM. It also gave an EC50 [4] of 224 nM, an EC50 [5] of 9 nM and an EC50 [6] of 33 nM.
Work on `CCc1nc(N)nc(-c2ccc(C)nc2)c1C#Cc1cnc(C)c(NS(=O)(=O)c2ccc(F)cc2F)c1` [Example 36, N-{5-[2-Amino-4-ethyl-6-(6-methyl-pyridin-3-yl)-pyrimidin-5-ylethynyl]-2-methyl-pyridin-3-yl}-2,4-difluoro-benzenesulfonamide] yielded an IC50 [1] of 0.56 nM, an EC50 [2] of 30 nM and an EC50 [3] of 37 nM. For the same compound, the EC50 [4] was 127 nM, the EC50 [5] was 10 nM and the EC50 [6] was 41 nM.
`Cc1ncc(C#Cc2c(C)ncnc2-c2ccc(C(=O)N3CCN(C)CC3)c(F)c2)cc1NS(C)(=O)=O` [Example 37, N-(5-{4-[3-Fluoro-4-(4-methyl-piperazine-1-carbonyl)-phenyl]-6-methyl-pyrimidin-5-ylethynyl}-2-methyl-pyridin-3-yl)-methanesulfonamide] showed an IC50 [1] of 5 nM, an EC50 [2] of 25000 nM and an EC50 [3] of 685 nM. The EC50 [4] was 3040 nM, the EC50 [5] was 4000 nM and the EC50 [6] was 1020 nM.
Compound `Cc1cc(-c2ncnc(C)c2C#Cc2cnc(C)c(NS(C)(=O)=O)c2)ccn1` [Example 38, N-{2-Methyl-5-[4-methyl-6-(2-methyl-pyridin-4-yl)-pyrimidin-5-ylethynyl]-pyridin-3-yl}-methanesulfonamide] has an IC50 [1] of 2 nM, an EC50 [2] of 2600 nM and an EC50 [3] of 317 nM. The EC50 [4] was 893 nM, the EC50 [5] was 186 nM and the EC50 [6] was 344 nM.
`Cc1ncc(C#Cc2c(C)ncnc2-c2cccc(C#N)c2)cc1NS(C)(=O)=O` [Example 39, N-{5-[4-(3-Cyano-phenyl)-6-methyl-pyrimidin-5-ylethynyl]-2-methyl-pyridin-3-yl}-methanesulfonamide] was tested, and the IC50 [1] was 4 nM, the EC50 [2] was 1550 nM and the EC50 [3] was 524 nM. The EC50 [4] was 955 nM, the EC50 [5] was 213 nM and the EC50 [6] was 837 nM.
With `Cc1ccc(-c2ncnc(C)c2C#Cc2cnc(C)c(NS(C)(=O)=O)c2)cn1` [Example 40, N-{2-Methyl-5-[4-methyl-6-(6-methyl-pyridin-3-yl)-pyrimidin-5-ylethynyl]-pyridin-3-yl}-methanesulfonamide] the IC50 [1] was 3 nM, the EC50 [2] was 1960 nM and the EC50 [3] was 411 nM. For the same compound, the EC50 [4] was 1170 nM, the EC50 [5] was 188 nM and the EC50 [6] was 597 nM.
`Cc1ncc(C#Cc2c(C)ncnc2-c2cccc(CN(C)C)c2)cc1NS(C)(=O)=O` [Example 41, N-{5-[4-(3-Dimethylaminomethyl-phenyl)-6-methyl-pyrimidin-5-ylethynyl]-2-methyl-pyridin-3-yl}-methanesulfonamide] gave an IC50 [1] of 9 nM, an EC50 [2] of 2750 nM and an EC50 [3] of 1160 nM. The EC50 [4] was 25000 nM, the EC50 [5] was 1860 nM and the EC50 [6] was 1280 nM.
`Cc1ncc(C#Cc2c(C)ncnc2-c2ccccc2)cc1NS(C)(=O)=O` [Example 42, N-[2-Methyl-5-(4-methyl-6-phenyl-pyrimidin-5-ylethynyl)-pyridin-3-yl]-methanesulfonamide] gave an IC50 [1] of 4 nM, an EC50 [2] of 2260 nM and an EC50 [3] of 1330 nM. For the same compound, the EC50 [4] was 1810 nM, the EC50 [5] was 239 nM and the EC50 [6] was 1130 nM.
`Cc1cc(C)cc(-c2ncnc(C)c2C#Cc2cnc(C)c(NS(C)(=O)=O)c2)c1` [Example 43, N-{5-[4-(3,5-Dimethyl-phenyl)-6-methyl-pyrimidin-5-ylethynyl]-2-methyl-pyridin-3-yl}-elmethanesulfonamide] gave an IC50 [1] of 3 nM, an EC50 [2] of 337 nM and an EC50 [3] of 639 nM. It also gave an EC50 [4] of 900 nM, an EC50 [5] of 270 nM and an EC50 [6] of 897 nM.
For `COc1ncc(C#Cc2c(C)ncnc2-c2ccnc(C)c2)cc1NS(=O)(=O)c1ccc(F)cc1F` [Example 44, 2,4-Difluoro-N-{2-methoxy-5-[4-methyl-6-(2-methyl-pyridin-4-yl)-pyrimidin-5-ylethynyl]-pyridin-3-yl}-benzenesulfonamide], the IC50 [1] was 0.55 nM, the EC50 [2] was 15 nM and the EC50 [3] was 37 nM. For the same compound, the EC50 [4] was 121 nM, the EC50 [5] was 3 nM and the EC50 [6] was 23 nM.
`COc1ccc(-c2ncnc(C)c2C#Cc2cnc(OC)c(NS(=O)(=O)c3ccc(F)cc3F)c2)cc1OC` [Example 45, N-{5-[4-(3,4-Dimethoxy-phenyl)-6-methyl-pyrimidin-5-ylethynyl]-2-methoxy-pyridin-3-yl}-2,4-difluoro-benzenesulfonamide] was tested, and the IC50 [1] was 1 nM, the EC50 [2] was 11 nM and the EC50 [3] was 34 nM. For the same compound, the EC50 [4] was 131 nM, the EC50 [5] was 5 nM and the EC50 [6] was 10 nM.
`COc1ncc(C#Cc2c(C)ncnc2-c2ccc(C(=O)N3CCN(C)CC3)c(F)c2)cc1NS(=O)(=O)c1ccc(F)cc1F` [Example 46, 2,4-Difluoro-N-(5-{4-[3-fluoro-4-(4-methyl-piperazine-1-carbonyl)-phenyl]-6-methyl-pyrimidin-5-ylethynyl}-2-methoxy-pyridin-3-yl)-benzenesulfonamide] showed an IC50 [1] of 0.67 nM, an EC50 [2] of 8 nM and an EC50 [3] of 22 nM. It also gave an EC50 [4] of 38 nM, an EC50 [5] of 5 nM and an EC50 [6] of 9 nM.
Work on `COc1ncc(C#Cc2c(C)ncnc2-c2ccc(C)nc2)cc1NS(=O)(=O)c1ccc(F)cc1F` [Example 47, 2,4-Difluoro-N-{2-methoxy-5-[4-methyl-6-(6-methyl-pyridin-3-yl)-pyrimidin-5-ylethynyl]-pyridin-3-yl}-benzenesulfonamide] yielded an IC50 [1] of 0.74 nM, an EC50 [2] of 7 nM and an EC50 [3] of 29 nM. For the same compound, the EC50 [4] was 70 nM, the EC50 [5] was 18 nM and the EC50 [6] was 43 nM.
